These results are taken from patent US20090286836A1, “Novel Compounds” (priority 2008, published 2009).

The target in one assay is human NK1 receptor (Homo sapiens, UniProt P25103). Nature of the assay: NK functional potency, FLIPR calcium release in U2OS cells (Substance P as ligand). The class given is cell-based. The arrangement: expressed in transfected cells; host or cells: human U2OS cells transiently transduced with recombinant BacMam virus. As to conditions: BacMam human NK1, average of at least two determinations, read-out: NK1 pKi (functional potency, fpKi) (converted). The source says: (§1) Compounds of the invention were further characterised in a functional assay using FLIPR technology for the determination of their effect to inhibit the intracellular calcium release induced by interaction of NK receptors with its perspective ligands. Human U2OS cells transiently transduced with recombinant BacMam virus expressing human NK1, NK2 and NK3 receptors were used in the studies (see J. P. Condreay et al, Proc. Natl. Acad. Sci. USA 1999, 96(1): 127-132). Briefly, U2OS cells were harvested from tissue culture flasks, re-suspended to a cell density of 200-300K/ml and mixed with recombinant BacMam virus carrying NKR gene in a virus/cell ratio of 1% (v/v). 10K-15K cells/well were then seeded in 384-well Greiner bio-one plate in culture medium (DMEM with 10% FBS), incubated overnight in 5% CO2 at 37° C. After aspirating the medium, cells were loaded 18-24 hr later with cytoplasmic calcium indicator Fluo-4 Calcium 3 dye (Molecular Devices Co.) in 30 uL/well buffer (Hank's balanced salts with 20 mM Hepes) and incubated in CO2 at 37° C. for 60 minutes. 10 uL/well assay buffer (Hank's balanced salts with 20 mM Hepes) containing different concentrations of compounds were then added to the cells for 30 minutes incubation at 37° C. Finally, 10 uL/well of NKR ligands in assay buffer containing 0.1% BSA was added to the cells and fluorescence signal read on a FLIPR system. Substance P, NKA and NKB peptides were used as the ligands for NK1, NK2 and NK3 receptor, respectively. IC50 values of each compound were determined by an 11-point 3×-dilution inhibition curve. The potency each antagonist (fpKi) was calculated from pIC50 by the Cheng-Prusoff equation using EC50 of ligand determined in a separate experiment.
(§2) The compounds of Example 11, Examples 2, 4 and 6 were tested in the NK functional potency assay.

The target in the next assay is T1, human NK3 receptor (Homo sapiens, UniProt P29371).
T1 construct: expressed in transfected cells; host or cells: human U2OS cells transiently transduced with recombinant BacMam virus
T1 sequence (P29371 1-465): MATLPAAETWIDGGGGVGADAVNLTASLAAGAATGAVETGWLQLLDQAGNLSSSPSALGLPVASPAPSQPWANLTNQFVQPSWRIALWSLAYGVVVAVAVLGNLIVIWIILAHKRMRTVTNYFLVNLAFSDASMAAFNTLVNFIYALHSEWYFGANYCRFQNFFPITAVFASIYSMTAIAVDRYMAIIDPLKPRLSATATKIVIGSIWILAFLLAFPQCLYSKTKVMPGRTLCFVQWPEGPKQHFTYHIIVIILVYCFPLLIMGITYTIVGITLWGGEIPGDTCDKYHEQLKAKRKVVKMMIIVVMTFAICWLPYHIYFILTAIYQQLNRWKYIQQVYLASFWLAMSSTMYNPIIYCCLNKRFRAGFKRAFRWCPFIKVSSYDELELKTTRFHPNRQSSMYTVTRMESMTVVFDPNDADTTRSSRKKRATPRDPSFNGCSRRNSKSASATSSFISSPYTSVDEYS
Nature of the assay: NK functional potency, FLIPR calcium release in U2OS cells (NKB as ligand). As to conditions: BacMam human NK3, average of at least two determinations, read-out: NK3 pKi (functional potency, fpKi) (converted). The class given is cell-based.
Excerpt: as §1, §2

Structures can show the parent of a compound that is named as a salt.

Chain of human NK1 receptor (P25103 whole entry): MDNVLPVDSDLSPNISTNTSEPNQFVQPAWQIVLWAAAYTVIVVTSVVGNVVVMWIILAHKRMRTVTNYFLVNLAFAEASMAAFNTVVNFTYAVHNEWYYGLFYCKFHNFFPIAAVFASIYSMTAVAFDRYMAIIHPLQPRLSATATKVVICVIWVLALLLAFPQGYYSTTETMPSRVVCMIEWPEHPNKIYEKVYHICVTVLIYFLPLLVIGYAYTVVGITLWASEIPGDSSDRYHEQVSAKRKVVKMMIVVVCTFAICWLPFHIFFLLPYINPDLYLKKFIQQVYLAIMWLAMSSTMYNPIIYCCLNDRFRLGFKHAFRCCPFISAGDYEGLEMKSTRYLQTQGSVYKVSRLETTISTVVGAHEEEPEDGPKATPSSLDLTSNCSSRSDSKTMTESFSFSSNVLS

Take `Cc1cc(F)ccc1-c1cc([C@H]2CC[C@](C)(C(N)=O)N2)ncc1N(C)C(=O)C(C)(C)c1cc(C(F)(F)F)cc(C(F)(F)F)c1` [Example 2, (5R)-5-[5-[{2-[3,5-bis(trifluoromethyl)phenyl]-2-methylpropanoyl}(methyl)amino]-4-(4-fluoro-2-methylphenyl)-2-pyridinyl]-2-methyl-D-prolinamide hydrochloride]: the Ki on human NK1 receptor is under 0.17 nM; at human NK3 receptor, 79.4 nM.
On to `Cc1cc(F)ccc1-c1cc([C@H]2CC[C@@](C)(C(N)=O)N2)ncc1N(C)C(=O)C(C)(C)c1cc(C(F)(F)F)cc(C(F)(F)F)c1` [Example 4, (5R)-5-[5-[{2-[3,5-bis(trifluoromethyl)phenyl]-2-methylpropanoyl}(methyl)amino]-4-(4-fluoro-2-methylphenyl)-2-pyridinyl]-2-methyl-L-prolinamide hydrochloride], for which the figures for the Ki at human NK1 receptor and at human NK3 receptor were under 0.17 nM and 63.1 nM, respectively.
`Cc1cc(F)ccc1-c1cc([C@@H]2CC[C@](C)(C(N)=O)N2)ncc1N(C)C(=O)C(C)(C)c1cc(C(F)(F)F)cc(C(F)(F)F)c1` [Example 6, (5S)-5-[5-[{2-[3,5-bis(trifluoromethyl)phenyl]-2-methylpropanoyl}(methyl)amino]-4-(4-fluoro-2-methylphenyl)-2-pyridinyl]-2-methyl-D-prolinamide hydrochloride]: the Ki was under 0.17 nM at human NK1 receptor and 158 nM at human NK3 receptor.
